Experimental findings from patent publication US8680137B2, “Agents and methods for treating ischemic and other diseases” (Nono Inc., priority 2009, dated 2014) are described below.

“Also recorded” adds a separate entry of the source.

The subject of experiment [1] is primary cultured mouse cortical cells. Put plainly: OGD-induced anoxic death in murine primary neuronal cell cultures, PI fluorescence. The experiment is classed as cell-based. As to conditions: 1 to 3 hours OGD, with or without MCN, applied prior to or following OGD. Here is the method: TRPM7 inhibitors were tested for their ability to reduce anoxic death in murine primary neuronal cell cultures subjected to 1 to 3 hours of OGD. This assay was generally performed as described by Aarts et al (2003). In brief, mixed cortical cultures enriched with neurons (85%) were prepared and used for experiments after 12-14 days in vitro. The cultures were transferred to an anaerobic chamber containing 5% CO2, 10% H and 85% N2. Cultures were washed 3× with 500 μl deoxygenated glucose free bicarbonate solution and maintained anoxic for the appropriate duration at 37° C. OGD was terminated by washing the cultures with oxygenated glucose-containing bicarbonate solution, and the cultures were further maintained 1-24 hours in a humidified 5% CO2 atmosphere. Cell death wash generally measured by fluorescence measurement of PI (50 ug/ml) in a multiwall plate reader (CytoFluor II, Perseptive Biosystems).

The target in experiment [2] is TRPM7 (Mus musculus, UniProt Q923J1). Put plainly: Whole-cell patch clamp recording of TRPM7 currents in HEK293 cells expressing TRPM7. As to conditions: for TRPM7 currents, applied intracellularly: in intracellular recording fluid, final concentration 2 mM, 10-20 minutes; for TRPM7 currents, extracellular application: tested at 0.3, 1, 3, 10 and 30 μM. For orientation: The patch-clamp technique gives a direct electrical read-out from membranes.
Procedure: Whole-cell patch clamp recordings were used essentially as described to test the TRPM7 inhibitors in HEK293 cells, H9c2 cardiomyocytes and cultured neurons. Each test compound was tested at 0.3, 1, 3, 10 and 30 μM, or as high as solubility permits.
To assess whether the M-compounds were inhibiting TRPM7 currents from an intracellular or extracellular location, M21 and M6 were dissolved in DMSO at 10 mM as stock, then diluted into intracellular recording fluid (ICF) to final concentration of 2 mM Immediately start recording of the TRPM7 like currents to RAMP change of membrane potentials after making the whole cell. Recording lasts for 10-20 minutes to compare the currents between control and test group.

Experiment [3] concerns Weri retinoblastoma cells. Put plainly: Cancer cell proliferation, Weri. Format: cell-based. As to conditions: >20% inhibition at 48-96 hours, MTT, SRB, luminescence or BrDU. Here is the method: To determine the breadth of efficacy in cancers, we examined the efficacy of a range of TRPM7 inhibitors for their ability to inhibit cell proliferation in cancer cell lines. Representative figures are included as examples.
Cells (Table 1) were grown to 70% confluency, trypsinized, counted, and seeded in 96-well flat-bottom plates at a final concentration of 2.5×10^3-5.0×10^3 cells/well in growth media containing 5% FBS (Day 0). Other well sizes and cell densities were used successfully as well. Cells were allowed to incubate in growth media for 24 hours to allow for maximum adhesion. Treatment with the test agent began on Day 1 and continued for 72 hours either with or without retreatment. At the 72 hour time point, viable cell numbers are quantified by the CellTiter-Glo® cell viability assay as described above, or using standard MTT, SRB or BrDU assays. Experiments were repeated at least twice with the same concentrations to determine growth inhibitory activity.
Data Collection—For the cell proliferation studies, data from each experiment was collected and expressed as % Cell Growth using the following calculation: % Cell Growth=(ftest/fvehicle)×100 Where ftest is the luminescent signal of the tested sample, and fvehicle is the luminescence of the vehicle in which the drug is dissolved (or appropriate measure for the other viability/proliferation measures). Dose response graphs and IC50 values were generated using standard software using the following variable slope equation: […]

The subject of experiment [4] is H9c2 cells. Put plainly: OGD-induced cell death in H9c2 cardiomyocytes, PI uptake. The experiment is classed as cell-based, rat. As to conditions: for resilience to OGD: 0.05-5.0 μM; for protection against OGD-induced death, pre-treatment: pre-treatment before OGD. Here is the method: The rat cardiomyoblast cell line H9c2 was obtained from the American Type Culture Collection (CRL-1446) and cultured in Dulbecco's Modified Eagle Medium supplemented with 10% (v/v) heat-inactivated fetal bovine serum and 1% antibiotic-antimycotic. Cells were grown in an atmosphere of […]/5% CO2 in a humidified incubator.
H9c2 cells were made anoxic by replacing the medium with de-oxygenated Ischemic buffer (in mM: 1.13 CaCl2, 5 KCl, 0.3 KH2PO4, 0.5 MgCl2, 0.4 MgSO4, 128 NaCl, 10 HEPES) and by transferring them to an anaerobic chamber (5% CO2, 10% H2, 85% N2) for 6 hrs or 16 hrs at 37° C. OGD was terminated by washing the cells with oxygenated glucose-containing Control buffer (in mM: 1.13 CaCl2, 5 KCl, 0.3 KH2PO4, 0.5 MgCl2, 0.4 MgSO4, 128 NaCl, 10 HEPES 10 Glucose). Cultures were maintained for another 2 hrs at 37° C. in a humidified 5% CO2 atmosphere. Normoxic cells were maintained in Control buffer for the duration of the experiment.
Cell death was determined by fluorescence measurements of PI (5 μg/ml) using a multiwell plate fluorescence scanner. The fraction of dead cells in each culture was calculated as: fraction dead=(Ft−F0)/Fmax where Ft=PI fluorescence at 2 hrs post-OGD, F0=initial PI fluorescence immediately after the OGD treatment, and Fmax=PI fluorescence of the same cultures following 20 mins incubation in 1% TritonX-100.
H9c2 cells were cultured and subjected to OGD as described supra. FIG. 71 panels A and B show the results of exposure to M21 or M5 for 24 hours following 6 hours of OGD. FIG. 71 panels C and D show the results of H9c2cells were treated with either 1 mM Mg^2+, 5 μM M6, M11 (acute treatment) during the anoxic and recovery periods, or 1 μM nifedipine. Results are presented as mean±SEM (n=4).

The test system of experiment [5] is retinal explants. Put plainly: OGD in cultured ex vivo retinal explants. The experiment is classed as cell-based, rat. As to conditions: 1 hr OGD. Here is the method:
The ability of TRPM7 inhibitors to protect other types of cell cultures following exposure to anoxia, including non-neuronal cell cultures, has also been tested. In general, cultures of growing cells are exposed to a 1-6 hour period of anoxia, followed by addition of a TRPM7 at a range of concentrations upon removal from anoxic conditions. […] This implies that TRPM7 inhibitors may be useful both as a treatment for anoxic damage to patients presenting symptoms of a disorder associated with anoxic damage, or as a preventative measure. Such preventative measures can be chronic, such as treatment to protect against damage from heart attacks or strokes, or acute, to be given prior to or during surgical procedures, which may include but not be limited to procedures that involve endovascular invasion and have the possibility of dislodging material that may block blood flow through arteries. Other types of preventative measures can include the reduction of anoxic damage associated with cardiovascular issues (heart attack, myocardial infarction, acute ischemic attacks, atrial fibrillation, etc), brain disorders (stroke, neurotrauma, etc), diabetic disorders (blindness, deafness, neuropathy), retinal/eye disorders (glaucoma, macular degeneration, blindness), aural disorders (deafness, progressive deafness, hearing loss), muscle disorders (weakness, myodegenerative disease, disorders associated with mitochondrial depletion), and organ disorders (kidney, lung, liver disorders associated with ischemia or anoxic damage).
Acute and chronic retinal ischemia are major causes of blindness. Retinal damage from glaucoma, also termed “slow excitotoxicity” afflicts millions of people each year and is the second leading cause of blindness worldwide (after cataracts). Diabetic retinopathy is also very common, afflicting about 40% of diabetics and, while less commonly producing complete blindness, is a leading cause of visual impairment. The retina is an extension of the CNS, and was the first organ in which excitotoxicity was described. […]

Chain of TRPM7 (Q923J1 whole entry): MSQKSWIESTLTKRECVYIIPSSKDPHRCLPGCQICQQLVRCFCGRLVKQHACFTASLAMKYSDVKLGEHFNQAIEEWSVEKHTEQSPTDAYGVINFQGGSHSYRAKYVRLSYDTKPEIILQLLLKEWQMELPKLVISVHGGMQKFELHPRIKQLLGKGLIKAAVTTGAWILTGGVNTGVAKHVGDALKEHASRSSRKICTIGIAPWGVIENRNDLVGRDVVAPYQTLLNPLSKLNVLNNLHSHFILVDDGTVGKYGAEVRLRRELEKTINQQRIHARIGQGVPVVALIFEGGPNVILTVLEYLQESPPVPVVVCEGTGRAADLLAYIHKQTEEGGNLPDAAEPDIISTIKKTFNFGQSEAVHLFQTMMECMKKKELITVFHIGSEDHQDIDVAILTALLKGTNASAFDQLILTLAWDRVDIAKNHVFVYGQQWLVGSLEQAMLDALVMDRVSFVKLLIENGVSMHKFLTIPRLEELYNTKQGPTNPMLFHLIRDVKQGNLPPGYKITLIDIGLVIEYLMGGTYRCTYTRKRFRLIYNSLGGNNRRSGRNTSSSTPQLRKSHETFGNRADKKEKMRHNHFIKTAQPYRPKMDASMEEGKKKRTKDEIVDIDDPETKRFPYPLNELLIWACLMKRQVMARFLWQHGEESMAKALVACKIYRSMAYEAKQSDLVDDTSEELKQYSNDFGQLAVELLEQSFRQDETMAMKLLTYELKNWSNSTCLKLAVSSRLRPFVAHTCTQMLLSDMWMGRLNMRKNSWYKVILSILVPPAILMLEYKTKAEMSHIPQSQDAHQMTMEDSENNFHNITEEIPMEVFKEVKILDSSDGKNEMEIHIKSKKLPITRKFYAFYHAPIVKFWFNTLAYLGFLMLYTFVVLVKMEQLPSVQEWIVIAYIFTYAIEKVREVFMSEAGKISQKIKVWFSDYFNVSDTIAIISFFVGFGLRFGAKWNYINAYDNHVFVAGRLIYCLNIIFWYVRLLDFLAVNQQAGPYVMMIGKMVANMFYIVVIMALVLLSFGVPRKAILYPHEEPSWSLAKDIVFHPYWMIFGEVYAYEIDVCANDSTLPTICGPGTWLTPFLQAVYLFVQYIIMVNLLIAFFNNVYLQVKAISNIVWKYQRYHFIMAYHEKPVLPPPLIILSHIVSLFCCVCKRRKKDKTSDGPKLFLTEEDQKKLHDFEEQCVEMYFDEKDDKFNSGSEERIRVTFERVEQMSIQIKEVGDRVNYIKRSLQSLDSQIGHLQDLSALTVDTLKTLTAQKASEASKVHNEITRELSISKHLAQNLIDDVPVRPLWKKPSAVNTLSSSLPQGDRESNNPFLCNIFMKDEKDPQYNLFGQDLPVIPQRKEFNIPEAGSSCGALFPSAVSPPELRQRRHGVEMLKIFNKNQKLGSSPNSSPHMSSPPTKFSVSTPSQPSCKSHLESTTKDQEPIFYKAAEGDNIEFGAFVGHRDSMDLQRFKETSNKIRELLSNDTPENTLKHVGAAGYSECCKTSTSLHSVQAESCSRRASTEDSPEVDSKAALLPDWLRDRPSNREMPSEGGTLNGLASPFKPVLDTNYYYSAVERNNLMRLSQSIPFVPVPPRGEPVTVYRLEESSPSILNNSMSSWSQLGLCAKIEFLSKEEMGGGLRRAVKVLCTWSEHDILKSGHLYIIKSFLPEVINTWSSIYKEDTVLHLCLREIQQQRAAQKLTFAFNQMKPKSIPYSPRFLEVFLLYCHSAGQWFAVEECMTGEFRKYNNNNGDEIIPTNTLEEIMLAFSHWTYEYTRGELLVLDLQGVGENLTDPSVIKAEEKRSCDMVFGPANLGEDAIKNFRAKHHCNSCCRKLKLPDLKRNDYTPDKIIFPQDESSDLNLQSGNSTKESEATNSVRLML

For `COc1cc2c(cc1OC)C(c1sc3ccccc3c1Cl)=NCC2` [Compound M6], the “protection from anoxic death after OGD” value in experiment [1] is “protection of cultures from anoxic death is observed”. For the same molecule, in experiment [2], the “TRPM7 currents, applied intracellularly” value is “do not affect TRPM7 currents” and the “TRPM7 currents, extracellular application” value is listed as “reduces current through the TRPM7 channel”. For the same molecule, the “TRPM7 currents, extracellular application” value in experiment [2] (listed as 6) was “inhibited ion currents through TRPM7”. For the same molecule, the “Demonstrated Reduction of Proliferation at or below 10 μM Inhibitor concentration” value in experiment [3] was “Weri retinoblastoma”. In experiment [4], the “resilience to OGD” value is reported as “enhanced their resilience to OGD” and the “protection against OGD-induced death, pre-treatment” value is listed as “comparable result to treatment after the onset of anoxia”. In addition, the “survival / resilience following exposure to OGD” value in experiment [5] is on record as “enhanced their resilience to OGD”.

On to `O=C(Nc1ccc(F)cc1)C(Sc1ccc(Cl)cc1)c1ccccc1` (stereo not shown) [Compound M11], for which the “protection from anoxic death after OGD” value in experiment [1] is “protection has been demonstrated”. Further, the “TRPM7 currents, extracellular application” value in experiment [2] is recorded as “highest level of inhibition”. Moreover, the “TRPM7 currents, extracellular application” value in experiment [2] (listed as 11) is “inhibited ion currents through TRPM7”. Further, the “Demonstrated Reduction of Proliferation at or below 10 μM Inhibitor concentration” value in experiment [3] was “Weri retinoblastoma”. In experiment [4], the “resilience to OGD” value was “enhanced their resilience to OGD” and the “protection against OGD-induced death, pre-treatment” value is on record as “less robust rescue of the OGD-induced death”. In addition, in experiment [5], the “survival / resilience following exposure to OGD” value is listed as “promote survival”.

In the case of `Cc1c(Cc2ccc(Cl)c(Cl)c2)c(=O)oc2cc(O)ccc12` [Compound M21], the “protection from anoxic death after OGD” value in experiment [1] was “protection of cultures from anoxic death is observed”. Moreover, in experiment [2], the “TRPM7 currents, applied intracellularly” value is recorded as “do not affect TRPM7 currents” and the “TRPM7 currents, extracellular application” value is on record as “highest level of inhibition”. Also, in experiment [2] (listed as 21), the “TRPM7 currents, extracellular application” value is “inhibited ion currents through TRPM7”. For the same molecule, the “Demonstrated Reduction of Proliferation at or below 10 μM Inhibitor concentration” value in experiment [3] is reported as “Weri retinoblastoma”. Also, the “resilience to OGD” value in experiment [4] is “enhanced their resilience to OGD”. For the same molecule, in experiment [5], the “survival / resilience following exposure to OGD” value is “promote survival; also recorded: enhanced their resilience to OGD”.
